Experimental data from patent publication US20220274961A1, “SUBSTITUTED FUSED BI- OR TRI- HETEROCYCLIC COMPOUNDS AS EHMT2 INHIBITORS” (priority 2016, published 2022).
Like-named read-outs stand apart in the source and are kept apart here.

Target: T1, EHMT2 (Homo sapiens, UniProt Q96KQ7)
T1 construct: endogenous in cells; host or cells: MDA-MB-231 (ATCC)
T1 sequence (Q96KQ7 1-1210): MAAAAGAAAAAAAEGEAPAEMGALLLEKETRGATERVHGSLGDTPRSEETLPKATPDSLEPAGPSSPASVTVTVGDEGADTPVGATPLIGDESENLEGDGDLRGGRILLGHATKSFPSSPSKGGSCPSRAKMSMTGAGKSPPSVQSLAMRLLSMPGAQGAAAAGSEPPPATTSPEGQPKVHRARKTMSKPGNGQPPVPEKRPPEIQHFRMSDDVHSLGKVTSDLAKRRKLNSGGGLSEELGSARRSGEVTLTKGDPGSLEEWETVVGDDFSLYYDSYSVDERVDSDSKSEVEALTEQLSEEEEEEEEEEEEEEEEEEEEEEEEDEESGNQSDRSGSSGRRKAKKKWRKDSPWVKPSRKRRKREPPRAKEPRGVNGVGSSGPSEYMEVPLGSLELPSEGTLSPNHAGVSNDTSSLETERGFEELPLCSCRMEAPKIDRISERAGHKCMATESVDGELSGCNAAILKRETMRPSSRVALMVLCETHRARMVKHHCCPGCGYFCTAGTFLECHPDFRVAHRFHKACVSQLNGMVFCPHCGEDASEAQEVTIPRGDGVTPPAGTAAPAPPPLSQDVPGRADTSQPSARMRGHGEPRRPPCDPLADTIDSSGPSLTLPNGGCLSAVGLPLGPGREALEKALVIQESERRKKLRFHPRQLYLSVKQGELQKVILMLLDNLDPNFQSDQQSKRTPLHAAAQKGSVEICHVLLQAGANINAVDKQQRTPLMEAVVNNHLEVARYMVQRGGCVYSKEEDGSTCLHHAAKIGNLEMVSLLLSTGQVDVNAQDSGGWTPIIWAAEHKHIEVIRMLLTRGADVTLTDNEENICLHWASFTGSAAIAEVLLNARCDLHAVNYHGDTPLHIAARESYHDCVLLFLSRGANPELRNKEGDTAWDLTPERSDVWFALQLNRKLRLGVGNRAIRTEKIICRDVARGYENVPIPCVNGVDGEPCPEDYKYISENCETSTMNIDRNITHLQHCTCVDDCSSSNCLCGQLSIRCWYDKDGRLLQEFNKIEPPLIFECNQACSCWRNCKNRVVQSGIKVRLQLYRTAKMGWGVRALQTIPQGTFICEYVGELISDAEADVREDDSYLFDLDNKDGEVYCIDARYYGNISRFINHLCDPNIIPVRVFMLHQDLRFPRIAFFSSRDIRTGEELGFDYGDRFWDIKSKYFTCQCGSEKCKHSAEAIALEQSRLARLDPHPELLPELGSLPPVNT
Experiment: MDA-MB-231 H3K9me2 in-cell Western assay (EHMT2 ICW)
Assay type: cell-based
Excerpt: MDA-MB-231 cell line was purchased from ATCC (Manassas, Va., USA). RPMI/Glutamax medium, Penicillin-Streptomycin, Heat Inactivated Fetal Bovine Serum, and D-PBS were purchased from Life Technologies (Grand Island, N.Y., USA). Odyssey blocking buffer, 800CW goat anti-mouse IgG (H+L) antibody, and Licor Odyssey Infrared Scanner were purchased from Licor Biosciences, Lincoln, Nebr., USA. H3K9me2 mouse monoclonal antibody (Cat #1220) was purchased from Abcam (Cambridge, Mass., USA). 16% Paraformaldehyde was purchased from Electron Microscopy Sciences, Hatfield, Pa., USA). MDA-MB-231 cells were maintained in complete growth medium (RPMI supplemented with 10% v/v heat inactivated fetal bovine serum) and cultured at 37° C. under 5% CO2. UNC0638 was purchased from Sigma-Aldrich (St. Louis, Mo., USA).
General Procedure for MDA-MB-231 HEK9me2 in-cell Western Assay. Compound (100 nL) was added directly to 384-well cell plate. MDA-MB-231 cells (ATCC) were seeded in assay medium (RPMI/Glutamax supplemented with 10% v/v heat inactivated fetal bovine serum and 1% Penicillin/Streptomycin, Life Technologies) at a concentration of 3,000 cells per well to a Poly-D-Lysine coated 384-well cell culture plate with 50 μL per well. Plates were incubated at 37° C., 5% CO2 for 48 hours (BD Biosciences 356697). Plates were incubated at room temperature for 30 minutes and then incubated at 37° C., 5% CO2 for additional 48 hours. After the incubation, 50 μL per well of 8% paraformaldehyde (Electron Microscopy Sciences) in PBS was added to the plates and incubated at room temperature for 20 minutes. Plates were transferred to a Biotek 406 plate washer and washed 2 times with 100 μL per well of wash buffer (1×PBS containing 0.3% Triton X-100 (v/v)). Next, 60 μL per well of Odyssey blocking buffer (Licor Biosciences) was added to each plate and incubated for 1 hour at room temperature. Blocking buffer was removed and 20 μL of monoclonal primary antibody α-H3K9me2 (Abcam) diluted 1:800 in Odyssey buffer with 0.1% Tween 20 (v/v) were added and plates were incubated overnight (16 hours) at 4° C. Plates were washed 5 times with 100 μL per well of wash buffer. Next 20 μL per well of secondary antibody was added (1:500 800CW donkey anti-mouse IgG (H+L) antibody (Licor Biosciences), 1:1000 DRAQ5 (Cell Signaling Technology) in Odyssey buffer with 0.1% Tween 20 (v/v)) and incubated for 1 hour at room temperature. The plates were washed 5 times with […] wash buffer then 2 times with 100 μL per well of water. Plates were allowed to dry at room temperature then imaged on a Licor Odyssey Infrared Scanner (Licor Biosciences) which measured integrated intensity at 700 nm and 800 nm wavelengths. Both 700 and 800 channels were scanned.
% Inhibition Calculation. First, the ratio for each well was determined by:
Each plate included fourteen control wells of DMSO only treatment (Minimum Inhibition) as well as fourteen control wells (background wells) for maximum inhibition treated with control compound UNC0638 (Background wells).
The average of the ratio values for each well was calculated and used to determine the percent inhibition for each test well in the plate. Control compound was serially diluted three-fold in DMSO for a total of 10 test concentrations beginning at 1 μM. Percent inhibition was calculated as: […]
IC50 curves were generated using triplicate wells per concentration of compound. The IC50 is the concentration of compound at which measured methylation is inhibited by 50% as interpolated from the dose response curves. IC50 values were calculated using a non-linear regression (variable slope-four parameter fit model) with by the following formula:
where Top is fixed at 100% and Bottom is fixed to 0%, [I]=concentration of inhibitor, IC50=half maximal inhibitory concentration, and n=Hill Slope.

[1] = MDA-MB-231 cells, H3K9me2 in-cell Western, read-out: EHMT2 ICW (IC50 μM)

`CCNc1nc2cc(OCCCN3CCCC3)c(OC)cc2n1CC` [Compound 39] showed an IC50 [1] of 0.1 to 1 µM.
Molecule `CCn1c(NC)nc2cc(OCCCN3CCCC3)c(OC)cc21` [Compound 42] has an IC50 [1] of less than 0.1 µM.
For `COc1cc2c(cc1OCCCN1CCCC1)nc(C)n2C` [Compound 21, 6-methoxy-1,2-dimethyl-5-(3-(pyrrolidin-1-yl)propoxy)-1H-benzo[d]imidazole], the IC50 [1] was greater than 10 µM.
`CCNC1=Nc2cc(CNCCN3CCCC3)c(OC)cc2C12CCC2` [Compound 71] showed an IC50 [1] of 1 to 10 µM.
Molecule `COc1cc2c(cc1OC[C@H](O)CN1CCCC1)nc(NC(C)C)n2C` [Compound 32] has an IC50 [1] of 1 to 10 µM.
With `COc1cc2c(cc1OC[C@H](O)CN1CCCC1)nc(NC1CCOCC1)n2C` [Compound 35] the IC50 [1] was greater than 10 µM.
In the case of `COc1cc2c(cc1OCCCN1CCCC1)nc(NCC(F)(F)F)n2C` [Compound 12, 6-methoxy-1-methyl-5-(3-(pyrrolidin-1-yl)propoxy)-N-(2,2,2-trifluoroethyl)-1H-benzo[d]imidazol-2-amine], the IC50 [1] is reported as 1 to 10 µM.
For `COc1cc2c(cc1OCCCN1CCCC1)nc(C)n2C1CCCC1` [Compound 23, 1-cyclopentyl-6-methoxy-2-methyl-5-(3-(pyrrolidin-1-yl)propoxy)-1H-benzo[d]imidazole], the IC50 [1] was 1 to 10 µM.
`COc1cc2[nH]c(N)nc2cc1OCCCN1CCCC1` [Compound 1, 6-methoxy-5-(3-(pyrrolidin-1-yl)propoxy)-1H-benzo[d]imidazol-2-amine] gave an IC50 [1] of 1 to 10 µM.
In the case of `COc1cc2sc(N)nc2cc1OCCCN1CCCC1` [Compound 6, 6-methoxy-5-[3-(pyrrolidin-1-yl)propoxy]-1,3-benzothiazol-2-amine], the IC50 [1] is reported as greater than 10 µM.
`COc1cc2c(cc1C#CCN1CCCC1)N=C(N)C21CCC1` [Compound 24, 5′-methoxy-6′-(3-(pyrrolidin-1-yl)prop-1-yn-1-yl)spiro[cyclobutane-1,3′-indol]-2′-amine] showed an IC50 [1] of less than 0.1 µM.
`COc1cc2c(cc1OCCCN1CCCC1)nc(NC1CCCC1)n2C` [Compound 30] showed an IC50 [1] of 1 to 10 µM.
In the case of `COc1cc2c(cc1OCCCN1CCCC1)nc(C1CCCC1)n2C` [Compound 22, 2-cyclopentyl-6-methoxy-1-methyl-5-(3-(pyrrolidin-1-yl)propoxy)-1H-benzo[d]imidazole], the IC50 [1] is reported as greater than 10 µM.
For `CNc1nc2cc(CNCCN3CCCC3)c(OC)cc2n1C` [Compound 37], the IC50 [1] was 0.1 to 1 µM.
Work on `COc1cc2c(cc1OC[C@H](O)CN1CCCC1)nc(NC1CCCC1)n2C` [Compound 33] yielded an IC50 [1] of 1 to 10 µM.
Work on `CNc1nc2cc(CNCCN3CCCC3)c(OC)cc2n1C(C)C` [Compound 40] yielded an IC50 [1] of 1 to 10 µM.
`CNc1nc2cc(CNCCN3CCCC3)c(Cl)cc2n1C(C)C` [Compound 138] showed an IC50 [1] of 1 to 10 µM.
`CCCNC1=Nc2cc(CNCCN3CCCC3)c(OC)cc2C12CCC2` [Compound 73] was tested, and the IC50 [1] was 0.1 to 1 µM.
Work on `CNC1=Nc2cc(C#CC(C)N3CCCCC3)c(OC)cc2C12CCC2` (stereo not shown) [Compound 92] yielded an IC50 [1] of 0.1 to 1 µM.
For `COc1cc2c(cc1OCCCN1CCCC1)N=C(N)C21CCOCC1` [Compound 5, 5-methoxy-6-(3-(pyrrolidin-1-yl)propoxy)-2′,3′,5′,6′-tetrahydrospiro[indole-3,4′-pyran]-2-amine], the IC50 [1] was 0.1 to 1 µM.
In the case of `CNC1=Nc2cc(C#C[C@@H](C)N3CCCC3)c(OC)cc2C12CCC2` [Compound 86], the IC50 [1] is reported as 0.1 to 1 µM.
Work on `CNc1nc2cc(OCCCN3CCCC3)c(OC)cc2n1C1CCOCC1` [Compound 13, 6-methoxy-N-methyl-5-(3-(pyrrolidin-1-yl)propoxy)-1-(tetrahydro-2H-pyran-4-yl)-1H-benzo[d]imidazol-2-amine] yielded an IC50 [1] of 0.1 to 1 µM.
In the case of `COCCNC1=Nc2cc(C#CCN3CCCCC3)c(OC)cc2C12CCC2` [Compound 99], the IC50 [1] is reported as 0.1 to 1 µM.
With `CNC1=Nc2cc(C#CC(C)N3CCCC3)c(OC)cc2C12CCC2` (stereo not shown) [Compound 84] the IC50 [1] was 0.1 to 1 µM.
In the case of `COc1cc2c(cc1OCCCN1CCCC1)N=C(N)C21CCOC1` (stereo not shown) [Compound 7, 5′-methoxy-6′-(3-(pyrrolidin-1-yl)propoxy)-4,5-dihydro-2H-spiro[furan-3,3′-indol]-2′-amine], the IC50 is reported as 0.1 to 1 µM.
Work on `COc1cc2c(cc1OCCCN1CCCC1)nc(N)n2C` [Compound 2, 6-methoxy-1-methyl-5-(3-(pyrrolidin-1-yl)propoxy)-1H-benzo[d]imidazol-2-amine] yielded an IC50 [1] of 0.1 to 1 µM.
Work on `COc1cc2c(cc1OCCCN1CCCC1)nc(N)n2C(C)C` [Compound 19] yielded an IC50 [1] of 0.1 to 1 µM.
With `CNC1=Nc2cc(CNCCN3CCCC3)c(OC)cc2C12CCC2` [Compound 70] the IC50 [1] was 0.1 to 1 µM.
In the case of `CNC1=Nc2cc(C#CCN3CCC(F)C3)c(OC)cc2C12CCC2` (stereo not shown) [Compound 100], the IC50 [1] is reported as 1 to 10 µM.
`CCNc1nc2cc(OC[C@H](O)CN3CCCC3)c(OC)cc2n1C` [Compound 31] gave an IC50 [1] of 0.1 to 1 µM.
`CNc1nc2cc(OC[C@H](O)CN3CCC3)c(OC)cc2n1C` [Compound 25] was tested, and the IC50 [1] was 0.1 to 1 µM.
With `CNC1=Nc2cc(C#CCN3CCCC3)c(OC)cc2C12CCC2` [Compound 74] the IC50 [1] was less than 0.1 µM.
In the case of `COc1cc2c(cc1CNCCN1CCCC1)N=C(NC1CCOCC1)C21CCC1` [Compound 76], the IC50 [1] is reported as 1 to 10 µM.
For `CNc1nc2cc(OC[C@H](O)CN3CCCC3)c(OC)cc2n1C` [Compound 26], the IC50 [1] was 0.1 to 1 µM.
`CNc1nc2cc(CNCCN3CCCC3)c(C)cc2n1C(C)C` [Compound 139] was tested, and the IC50 [1] was 1 to 10 µM.
Molecule `CCn1c(NC)nc2cc(CNCCN3CCCC3)c(OC)cc21` [Compound 41] has an IC50 [1] of 0.1 to 1 µM.
`CNc1nc2cc(OC[C@H](O)CN3CCCC3)c(OC)cc2n1C1CCCC1` [Compound 38] was tested, and the IC50 [1] was 0.1 to 1 µM.
`COc1cc2c(cc1OCCCN1CCCC1)nc(N)n2CC1CCOCC1` [Compound 18] was tested, and the IC50 [1] was 1 to 10 µM.
`CNC1=Nc2cc(C#CCN3CCCCC3)c(OC)cc2C12CCC2` [Compound 75, 5′-methoxy-N-methyl-6′-(3-(piperidin-1-yl)prop-1-yn-1-yl)spiro[cyclobutane-1,3′-indol]-2′-amine] gave an IC50 [1] of less than 0.1 µM.
Molecule `CNC1=Nc2cc(C#C[C@H](C)N3CCCC3)c(OC)cc2C12CCC2` [Compound 85] has an IC50 [1] of less than 0.1 µM.
